The results in this text go back to article PMC7044277 (Nature Communications, 2020).

“And” between values parts separate entries of the source, which are not always exact repeats. Equal entries are not always repeated.

Type in all cases: cell-based
Holding throughout (set-up): GPCRome screening signal at PTGIR / GPCRome screening signal at PTH1R / GPCRome screening signal at PTH2R / GPCRome screening signal at QRFP / GPCRome screening signal at RXFP2 / GPCRome screening signal at RXFP3 / GPCRome screening signal at RXFP4 / GPCRome screening signal at S1PR2 / GPCRome screening signal at S1PR3 / GPCRome screening signal at S1PR4 / GPCRome screening signal at S1PR5 / GPCRome screening signal at SCTR / GPCRome screening signal at SSTR2 / GPCRome screening signal at SSSTR / GPCRome screening signal at SSTR4 / GPCRome screening signal at SSTR5 / GPCRome screening signal at SUCNR1 / GPCRome screening signal at TA1 / GPCRome screening signal at TAAR2 / GPCRome screening signal at TAAR5 / GPCRome screening signal at TAAR6 / GPCRome screening signal at TAAR8 / GPCRome screening signal at TACR1 / GPCRome screening signal at TACR2 / GPCRome screening signal at TACR3 / GPCRome screening signal at TBXA2R / GPCRome screening signal at TSHR / GPCRome screening signal at UTS2R / GPCRome screening signal at VIPR2 / GPCRome screening signal at GPR68 no V2 Tail / GPCRome screening signal at GRM2 / GPCRome screening signal at GRM3: reference not given here

Assay [1] deals with T1, 320 non-olfactory GPCRs (Homo sapiens, UniProt P16473).
T1 construct: expressed in transfected cells; host or cells: HTLA cells
The following applies: receptor TSHR.

The target of assay [2] is T2, 320 non-olfactory GPCRs (Homo sapiens, UniProt Q8TDU9).
T2 construct: expressed in transfected cells; host or cells: HTLA cells
The following applies: receptor RXFP4.

Assay [3] deals with T3, 320 non-olfactory GPCRs (Homo sapiens, UniProt Q96RI8).
T3 construct: expressed in transfected cells; host or cells: HTLA cells
The following applies: receptor TAAR6.

The target in assay [4] is 320 non-olfactory GPCRs (Homo sapiens, UniProt Q99500). The following applies: receptor S1PR3.
Setting [5] is: Fig_5f, single replicate values.
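Throughout, for GPCRome agonism screen response: fold over basal response of each receptor without drug.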

T3 sequence (Q96RI8 whole entry): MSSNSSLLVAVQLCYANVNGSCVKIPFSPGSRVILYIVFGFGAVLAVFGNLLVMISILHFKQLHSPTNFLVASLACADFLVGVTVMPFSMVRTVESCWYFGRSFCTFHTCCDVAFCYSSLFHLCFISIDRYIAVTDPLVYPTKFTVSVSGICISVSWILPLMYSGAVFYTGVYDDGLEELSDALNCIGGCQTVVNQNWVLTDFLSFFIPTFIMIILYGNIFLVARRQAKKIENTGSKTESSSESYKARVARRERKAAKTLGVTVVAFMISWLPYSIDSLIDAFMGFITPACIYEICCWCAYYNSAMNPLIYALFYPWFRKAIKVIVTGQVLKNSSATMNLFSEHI
T2 sequence (Q8TDU9 whole entry): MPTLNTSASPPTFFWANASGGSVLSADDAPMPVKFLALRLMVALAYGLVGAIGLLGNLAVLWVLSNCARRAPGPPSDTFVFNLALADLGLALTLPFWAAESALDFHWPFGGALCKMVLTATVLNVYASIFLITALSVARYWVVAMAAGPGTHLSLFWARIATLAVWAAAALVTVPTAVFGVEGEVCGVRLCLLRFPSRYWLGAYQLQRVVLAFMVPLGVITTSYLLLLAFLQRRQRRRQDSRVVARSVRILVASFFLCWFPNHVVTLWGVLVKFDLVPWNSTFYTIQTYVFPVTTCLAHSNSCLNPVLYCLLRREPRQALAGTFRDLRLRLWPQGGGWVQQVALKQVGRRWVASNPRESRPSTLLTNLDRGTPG
T1 sequence (P16473 21-764): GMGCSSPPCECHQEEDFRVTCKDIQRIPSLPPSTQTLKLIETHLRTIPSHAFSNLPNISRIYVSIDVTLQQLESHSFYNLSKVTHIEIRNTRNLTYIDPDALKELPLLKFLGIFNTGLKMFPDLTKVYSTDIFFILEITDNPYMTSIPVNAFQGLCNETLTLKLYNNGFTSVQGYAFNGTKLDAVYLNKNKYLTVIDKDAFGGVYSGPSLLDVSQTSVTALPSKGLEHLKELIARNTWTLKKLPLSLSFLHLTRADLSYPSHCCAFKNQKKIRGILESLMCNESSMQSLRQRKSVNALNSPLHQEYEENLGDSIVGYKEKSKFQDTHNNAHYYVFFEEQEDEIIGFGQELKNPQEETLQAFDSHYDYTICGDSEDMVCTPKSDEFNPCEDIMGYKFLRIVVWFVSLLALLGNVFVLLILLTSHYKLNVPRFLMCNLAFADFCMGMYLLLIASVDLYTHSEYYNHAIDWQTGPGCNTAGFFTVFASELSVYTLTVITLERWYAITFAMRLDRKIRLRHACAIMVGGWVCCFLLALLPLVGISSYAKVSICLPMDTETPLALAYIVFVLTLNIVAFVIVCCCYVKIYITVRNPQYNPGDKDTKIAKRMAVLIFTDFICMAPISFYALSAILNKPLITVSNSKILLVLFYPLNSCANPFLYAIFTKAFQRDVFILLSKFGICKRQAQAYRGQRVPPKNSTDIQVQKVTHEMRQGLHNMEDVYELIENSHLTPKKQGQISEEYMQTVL
Sequence of 320 non-olfactory GPCRs (Homo sapiens, UniProt Q99500) (Q99500 whole entry): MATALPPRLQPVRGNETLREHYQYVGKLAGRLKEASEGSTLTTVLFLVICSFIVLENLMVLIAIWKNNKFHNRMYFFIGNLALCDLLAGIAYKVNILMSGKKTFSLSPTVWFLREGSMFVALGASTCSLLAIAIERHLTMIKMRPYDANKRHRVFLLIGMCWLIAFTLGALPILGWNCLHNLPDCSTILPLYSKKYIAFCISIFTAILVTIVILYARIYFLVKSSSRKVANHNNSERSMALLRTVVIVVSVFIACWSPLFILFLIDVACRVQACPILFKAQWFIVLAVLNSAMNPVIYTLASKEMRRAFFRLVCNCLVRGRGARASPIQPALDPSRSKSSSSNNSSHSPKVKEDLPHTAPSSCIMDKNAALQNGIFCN

In the case of `CCOc1ccccc1CCC(C)NCC1(O)CCCCC1.Cl` (racemic) [Fig_5f], the “GPCRome screening signal at TSHR” value on 320 non-olfactory GPCRs [1] (setting [5]) was 0.6627 and 1.386 and 0.8068 and 1.0471. The “GPCRome screening signal at RXFP4” value on 320 non-olfactory GPCRs [2] (setting [5]) was 0.4319 and 1.123 and 0.5997 and 0.5278. Also, the “GPCRome screening signal at TAAR6” value at 320 non-olfactory GPCRs [3] (setting [5]) is 0.9086 and 0.7284 and 0.9687 and 0.7288. Besides, the “GPCRome screening signal at S1PR3” value at 320 non-olfactory GPCRs [4] (setting [5]) is 1.578 and 1.076 and 2.206 and 1.217.

In the case of `CCOc1cccc2cc(C(C)NCC3(O)CCCCC3)oc12` (centres unmarked) [O4LE6], the “GPCRome agonism screen response” value on 320 non-olfactory GPCRs [1] (replicate values, Fig_4g) is 0.633 and 1.167 and 0.8187 and 0.6635; at 320 non-olfactory GPCRs [2] (replicate values, Fig_4g), 0.5888 and 1.446 and 0.8124 and 1.384; at 320 non-olfactory GPCRs [3] (replicate values, Fig_4g), 1.686 and 0.9412 and 0.4865 and 0.01025; on 320 non-olfactory GPCRs [4] (replicate values, Fig_4g), 2.336 and 1.6343 and 1.172 and 1.379.
